# Experimental data as given in the Deep4Chem optical property database.
# Test: solvent given as SMILES
structure (smiles),measurement,setting,value
COc1cc(OC)cc(C2=C3C(C)=C(I)C(/C=C/c4c[nH]c5ccccc45)=[N+]3[B-](F)(F)n3c(/C=C/c4c[nH]c5ccccc45)c(I)c(C)c32)c1,emission maximum,in C1CCOC1,748 nm
same,emission maximum,in CS(C)=O,771 nm
same,emission maximum,in ClCCl,735 nm
CCn1c2ccc(/C=C/c3ccc4c(c3)c3cc(-c5nc6ccccc6s5)ccc3n4CC)cc2c2cc(-c3nc4ccccc4s3)ccc21,emission maximum,in C1CCOC1,408 nm
same,emission maximum,in CC#N,491 nm
same,emission maximum,in CCOC(C)=O,412 nm
same,emission maximum,in CN(C)C=O,449 nm
same,emission maximum,in ClCCl,442 nm
Cc1ccc(-c2cc(/C=C/c3ccc(N(c4ccccc4)c4ccccc4)cc3)c(-c3ccc(C)cc3)cc2/C=C/c2ccc(N(c3ccccc3)c3ccccc3)cc2)cc1,emission maximum,in ClCCl,492 nm
CC(C)(C)c1ccc(-c2cc3c(-c4ccc(C(C)(C)C)cc4)c4cccc5c(-c6ccc(C(C)(C)C)cc6)cc6c(-c7ccc(C(C)(C)C)cc7)c7cccc2c7c3c6c54)cc1,emission maximum,in C1CCCCC1,463 nm
same,emission maximum,in CC#N,464 nm
same,emission maximum,in CO,462 nm
same,emission maximum,in Cc1ccccc1,467 nm
same,emission maximum,in ClCCl,467 nm
O=S1(=O)c2ccccc2C2(c3cc(-c4ccc(-n5c6ccccc6c6ccccc65)cc4)ccc3-c3ccc(-c4ccc(-n5c6ccccc6c6ccccc65)cc4)cc32)c2ccccc21,emission maximum,in ClCCl,427 nm
same,emission maximum,in c1cc(-n2c3ccccc3c3ccccc32)cc(-n2c3ccccc3c3ccccc32)c1,412 nm
CC(C)(C)c1ccc2c(c1)c1cc(C(C)(C)C)ccc1n2-c1ccc(-c2nc(-c3ccccc3)nc(-c3ccccc3)n2)c2c1c1ccccc1n2-c1ccccc1,emission maximum,in C1CCOC1,450 nm
same,emission maximum,in Cc1ccccc1,417 nm
same,emission maximum,in ClCCl,474.77 nm
N#Cc1ccc(-n2c(-c3ccc(-c4ccc(-c5nc6c7ccccc7c7ccccc7c6n5-c5ccc(C#N)c6ccccc56)cc4)cc3)nc3c4ccccc4c4ccccc4c32)c2ccccc12,emission maximum,in ClCCl,430 nm
COC(=O)/C(C#N)=c1\s/c(=c2/s/c(=C(/C#N)C(=O)OC)c3cc(-c4ccccc4)sc23)c2sc(-c3ccccc3)cc12,emission maximum,in Cc1ccccc1,640 nm
Cc1ccc(N(c2ccc(C)cc2)c2ccc(Oc3nnc(Cl)nn3)cc2)cc1,emission maximum,in ClCCl,550 nm
CCCc1ccc(C#Cc2cc(C#Cc3ccc(N(C)C)cc3)c3ccc4c(C#Cc5ccc(N(C)C)cc5)cc(C#Cc5ccc(N(C)C)cc5)c5ccc2c3c54)cc1,emission maximum,in ClCCl,603 nm
Cc1ccc(/C=C/c2ccccc2-[n+]2cc([O-])on2)cc1,emission maximum,in C1CCCCC1,400 nm
same,emission maximum,in CC#N,504 nm
O=C(O)C1=C(C(=O)O)C2=C[C@H]3c4ccccc4[C@]2(S1)c1ccccc13,emission maximum,in ClCCl,503 nm
O=C([O-])c1ccc(C(=O)[O-])c(C2=c3cc4c5c(c3Oc3c2cc2c6c3CCCN6CCC2)CCC[N+]=5CCC4)c1,emission maximum,in CCO,596 nm
same,emission maximum,in O,603 nm
COC(=O)c1ccc(-c2ccc(-c3nnc(-c4ccc(-c5nnc(-c6ccc(-c7ccc(C(=O)OC)cc7)s6)o5)cc4)o3)s2)cc1,emission maximum,in C1COCCO1,400 nm
same,emission maximum,in CC#N,400 nm
same,emission maximum,in CC(=O)N(C)C,417 nm
same,emission maximum,in CCCCCCCCCCO,408 nm
same,emission maximum,in CCCCCCCCO,399 nm
same,emission maximum,in CCCCCCO,389 nm
same,emission maximum,in CCCCO,394 nm
same,emission maximum,in CCO,400 nm
same,emission maximum,in CS(C)=O,420 nm
same,emission maximum,in Cc1ccccc1,399 nm
same,emission maximum,in ClC(Cl)Cl,397 nm
CCCCCCCCOc1ccc(-c2c3c4n(c(-c5ccc(OCCCCCCCC)cc5)c3c3n2[B-](F)(F)[n+]2ccccc2N=3)[B-](F)(F)[n+]2ccccc2N=4)cc1,emission maximum,in ClC(Cl)Cl,661 nm
CCCCCCCCC1(CCCCCCCC)c2cc3c(cc2-c2sc(-c4ccc(/C=C5\SC(N6CCCCC6)=NC5=O)c5nsnc45)cc21)C(CCCCCCCC)(CCCCCCCC)c1cc(-c2ccc(/C=C4\SC(N5CCCCC5)=NC4=O)c4nsnc24)sc1-3,emission maximum,in ClC(Cl)Cl,675 nm
CCCSc1ccc2n1[B-](F)(F)[N+]1=C(SC#N)C=CC1=C2c1ccccc1,emission maximum,in CC#N,567 nm
same,emission maximum,in CCCCCC,568 nm
same,emission maximum,in CCOC(C)=O,567 nm
same,emission maximum,in CO,563 nm
same,emission maximum,in ClCCl,569 nm
C[Si](C)(C)c1ccc2ccc3c([Si](C)(C)C)ccc4ccc1c2c43,emission maximum,in CCCCCC,380 nm
same,emission maximum,in CO,380 nm
same,emission maximum,in ClCCl,381 nm
Oc1ccccc1-c1nc2c3ccccc3c3ccccc3c2o1,emission maximum,in Cc1ccccc1,367 nm
COc1ccc(-n2nc(C#N)c(N3CCCCC3)n2)cc1,emission maximum,in CC#N,415 nm
COc1ccc(N(c2ccc(OC)cc2)c2cc(N(c3ccc(OC)cc3)c3ccc(OC)cc3)c3ccc4cc(C(C)(C)C)cc5ccc2c3c54)cc1,emission maximum,in ClCCl,525 nm
Cc1cc(C)c(B(c2ccc(C#Cc3cc4ccc5cc(C#Cc6ccc(B(c7c(C)cc(C)cc7C)c7c(C)cc(C)cc7C)cc6)cc6ccc(c3)c4c56)cc2)c2c(C)cc(C)cc2C)c(C)c1,emission maximum,in Cc1ccccc1,426 nm
CC(C)Nc1cc2c(cc1F)c(=O)c1cc(F)c(NC(C)C)cc1n2C(C)C,emission maximum,in CCO,423 nm
c1cc2ccc3cccc4c(-c5cc(-c6nccs6)nc(-c6nccs6)c5)cc(c1)c2c34,emission maximum,in CC#N,458 nm
same,emission maximum,in CCCCCC,392 nm
same,emission maximum,in CO,483 nm
same,emission maximum,in ClC(Cl)Cl,439 nm
c1ccc(N(c2ccccc2)c2ccc(-c3ccc(-c4ccc(-c5cccs5)c5nsnc45)s3)cc2)cc1,emission maximum,in ClC(Cl)Cl,670 nm
Cc1cc2cc3ccccc3cc2cn1,emission maximum,in CCO,437.06 nm
Clc1ccc(/C=C(\c2ccccc2)c2nc3ccccc3s2)cc1,emission maximum,in C1CCCCC1,420 nm
same,emission maximum,in CO,430 nm
CCCN1/C(=C/C=C(/C=C/C2=[N+](CCC)c3ccccc3C2(C)C)c2ccncc2)C(C)(C)c2ccccc21,emission maximum,in CO,648 nm
same,emission maximum,in CS(C)=O,655 nm
same,emission maximum,in O,658 nm
CC1(C)C(/C=C/C2=C(Oc3ccc(CCN=C=S)cc3F)C(=C/C=C3/N(CCCS(=O)(=O)[O-])c4ccccc4C3(C)C)/CCC2)=[N+](CCCS(=O)(=O)[O-])c2ccccc21,emission maximum,in CO,797 nm
C1=C(c2ccccc2)C=C(c2ccccc2)/C1=C/c1cccc(Oc2ccccc2)c1,emission maximum,in C1CCOC1,506 nm
COC(=O)/C(C#N)=c1\s/c(=c2/s/c(=C(/C#N)C(=O)OC)c3cc(-c4ccc(C)cc4)sc23)c2sc(-c3ccc(C)cc3)cc12,emission maximum,in Cc1ccccc1,652 nm
Cc1cc2cc(N3c4ccccc4Oc4ccccc43)ccc2c(=O)o1,emission maximum,in Cc1ccccc1,540 nm
CCCCCCN1C(=O)c2cccc3c(-c4ccc(-c5cc(-c6ccc(Cl)cc6)nn5-c5ccccc5)s4)ccc(c23)C1=O,emission maximum,in ClCCl,519 nm
O=[N+]([O-])c1ccc(C2=Nc3sc(-c4ccccc4)n[n+]3[B-](F)(F)O2)cc1,emission maximum,in Cc1ccccc1,409 nm
CCCCCCOc1cc(/C=C/c2cc(OCCCCCC)c(/C=C/c3cc(OCCCCCC)c(/C=C4\C(=O)c5ccccc5C4=C(C#N)C#N)cc3OCCCCCC)cc2OCCCCCC)c(OCCCCCC)cc1/C=C1\C(=O)c2ccccc2C1=C(C#N)C#N,emission maximum,in ClCCl,765 nm
COc1nc(Cl)nc(Nc2ccc3c4cccc5cccc(c6cccc2c63)c54)n1,emission maximum,in C1COCCO1,479 nm
same,emission maximum,in CC#N,482 nm
same,emission maximum,in CCCCOCCCC,477 nm
same,emission maximum,in CCOC(C)=O,477 nm
CCCCCCc1ccc2c3c(ccc2c1)O[B-](F)(F)[N+](c1ccc([N+]2=Cc4c(ccc5cc(CCCCCC)ccc45)O[B-]2(F)F)cc1)=C3,emission maximum,in C1CCOC1,505 nm
same,emission maximum,in CC#N,502 nm
same,emission maximum,in Cc1ccccc1,508 nm
same,emission maximum,in ClCCl,507 nm
